Inhibition data for 18 compounds are collected here from US8455475B2 (Gruenenthal GmbH, priority 2009, dated 2013).

For the assay, the target named is T1, rat B1R (bradykinin receptor 1) (Rattus norvegicus, UniProt P97583).
T1 construct: expressed in transfected cells; host or cells: CHO K1 cells
T1 sequence (P97583 1-337): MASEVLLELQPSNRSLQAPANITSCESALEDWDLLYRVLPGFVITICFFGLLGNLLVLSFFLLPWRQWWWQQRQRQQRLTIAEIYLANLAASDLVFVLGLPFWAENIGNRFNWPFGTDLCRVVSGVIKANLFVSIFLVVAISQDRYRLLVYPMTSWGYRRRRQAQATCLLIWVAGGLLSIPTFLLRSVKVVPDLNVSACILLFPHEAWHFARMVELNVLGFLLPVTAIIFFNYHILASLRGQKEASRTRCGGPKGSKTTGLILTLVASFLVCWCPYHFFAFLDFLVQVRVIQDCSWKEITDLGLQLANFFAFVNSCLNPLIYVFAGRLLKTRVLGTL
Briefly: FLIPR Ca2+ assay (Fluo-4) on CHO K1 cells stably transfected with the B1R gene of the rat (rB1R cells): % inhibition at 10 μM / IC50, agonist Des-Arg9-bradykinin. It is filed as cell-based. Conditions: CHO-K1, rat B1R. How it is done: The agonistic or antagonistic action of substances can be quantified on the bradykinin receptor 1 (B1R) of the human and rat species with ectopically expressing cell lines (CHO K1 cells) and with the aid of a Ca^2+-sensitive dyestuff (Fluo-4) in a fluorescent imaging plate reader (FLIPR). The figure in % activation is based on the Ca^2+ signal after addition of Lys-Des-Arg^9-bradykinin (0.5 nM) or Des-Arg^9-bradykinin (100 nM). Antagonists lead to a suppression of the Ca^2+ inflow after addition of the agonist. % inhibition compared with the maximum achievable inhibition is stated.
The agonistic or antagonistic action of substances can be determined on the bradykinin receptor 1 (B1R) of the human and rat species with the following assay. In accordance with this assay, the Ca^2+ inflow through the channel is quantified with the aid of a Ca^2+-sensitive dyestuff (type Fluo-4, Molecular Probes Europe BV, Leiden, Holland) in a fluorescent imaging plate reader (FLIPR, Molecular Devices, Sunnyvale, USA).
Chinese hamster ovary cells (CHO K1 cells) transfected stably with the human B1R gene (hB1R cells) or the B1R gene of the rat (rB1R cells) are used. For functional studies, these cells are plated out on black 96-well plates with a clear base (BD Biosciences, Heidelberg, Germany or Greiner, Frickenhausen, Germany) in a density of 20,000-35,000 cells/well. The cells are left overnight at 37° C. and 5% CO2 in culture medium (hB1R cells: Nutrient Mixture Ham's F12, Gibco Invitrogen GmbH, Karlsruhe, Germany or DMEM, Sigma-Aldrich, Taufkirchen, Germany; rB1R cells: D-MEM/F12, Gibco Invitrogen GmbH, Karlsruhe, Germany) with 10 vol. % FBS (foetal bovine serum, Gibco Invitrogen GmbH, Karlsruhe, Germany or PAN Biotech GmbH, Aidenbach, Germany). On the following day, the cells are loaded for 60 min at 37° C. with 2.13 μM Fluo-4 (Molecular Probes Europe BV, Leiden Holland) in HBSS buffer (Hank's buffered saline solution, Gibco Invitrogen GmbH, Karlsruhe, Germany) with 2.5 mM probenecid (Sigma-Aldrich, Taufkirchen, Germany) and 10 mM HEPES (Sigma-Aldrich, Taufkirchen, Germany). The plates are then washed 2× with HBSS buffer, and HBSS buffer which additionally contains 0.1% BSA (bovine serum albumin; Sigma-Aldrich, Taufkirchen, Germany), 5.6 mM glucose and 0.05% gelatine (Merck KGaA, Darmstadt, Germany) is added. After a further incubation of 20 minutes at room temperature, the plates are inserted into the FLIPR for the Ca^2+ measurement. Alternatively, the plates are washed with buffer A (15 mM HEPES, 80 mM NaCl, 5 mM KCl, 1.2 mM CaCl2, 0.7 mM MgSO4, 2 g/l glucose, 2.5 mM probenecid), buffer A is added and the plates are loaded with 2.5 μM Fluo-4 and 0.025% Pluronic F127 (Sigma-Aldrich, Taufkirchen, Germany). Thereafter, the cells are washed 2× with buffer A and incubated for 30 minutes at room temperature with buffer A, which additionally contains 0.05% BSA and 0.05% gelatine, and thereafter inserted into the FLIPR for the Ca^2+ measurement. The Ca^2+-dependent fluorescence is measured here before and after addition of substances (λex=488 nm, λem=540 nm). Quantification is by measurement of the highest fluorescence intensity (FC, fluorescence counts) over time.
The FLIPR protocol consists of 2 additions of substance. Test substances (10 μM) are first pipetted on to the cells and the Ca^2+ inflow is compared with the control (hB1R: Lys-Des-Arg^9-bradykinin>=50 nM; rB1R: Des-Arg^9-bradykinin 10 μM). This gives the result in % activation based on the Ca^2+ signal after addition of Lys-Des-Arg^9-bradykinin (>=50 nM) or Des-Arg^9-bradykinin (10 μM). After incubation for 10-20 minutes, Lys-Des-Arg^9-bradykinin (hB1R) or Des-Arg^9-bradykinin (rB1R) in the concentration of the EC80 is applied and the inflow of Ca^2+ is likewise determined. Antagonists lead to a suppression of the Ca^2+ inflow. % inhibition compared with the maximum achievable inhibition is calculated.
For determination of the IC50 value, the substances are added in various concentrations. […]

For orientation: inhibition means the relative decrease from the control value, in per cent. Take `Cc1cc(F)cc(C)c1S(=O)(=O)NC1CCc2ccc(C(=O)N3CCC4(CCN(c5ccncc5)CC4)C3)cc21` (stereo not drawn) [IND_CC-361, 4-Fluoro-2,6-dimethyl-N-[6-(8-pyridin-4-yl-2,8-diazaspiro[4.5]decane-2-carbonyl)-2,3-dihydro-1H-inden-1-yl]-benzenesulfonic acid amide]: the inhibition at 10 µM was determined as 99%.

Turning to `O=C(NC1CCc2ccc(C(=O)N3CCC4(CCN(c5ccncc5)CC4)C3)cc21)C1CCCCC1` (stereo not drawn) [IND_CC-367, N-[6-(8-Pyridin-4-yl-2,8-diazaspiro[4.5]decane-2-carbonyl)-2,3-dihydro-1H-inden-1-yl]-cyclohexanecarboxylic acid amide], the inhibition at 10 µM was determined as 104%.

With `O=C(NC1CCc2ccc(C(=O)N3CCC4(CCN(Cc5c(F)cccc5Cl)CC4)CC3)cc21)c1cccc(Cl)c1Cl` (stereo not drawn) [IND_CC-727, 2,3-Dichloro-N-[6-[9-[(2-chloro-6-fluoro-phenyl)-methyl]-3,9-diazaspiro[5.5]undecane-3-carbonyl]-2,3-dihydro-1H-inden-1-yl]-benzamide], the inhibition at 10 µM came out at 74%.

On to `O=C(NC1CCc2ccc(C(=O)N3CCC4(CCN(Cc5ccc6nccnc6c5)CC4)C3)cc21)c1sccc1Cl` (stereo not drawn) [IND_CC-571, 3-Chloro-N-[6-[8-(quinoxalin-6-yl-methyl)-2,8-diazaspiro[4.5]decane-2-carbonyl]-2,3-dihydro-1H-inden-1-yl]-thiophene-2-carboxylic acid amide], for which the inhibition at 10 µM amounted to 52%.

For `O=C(NC1CCc2ccc(C(=O)N3CCC4(CCN(Cc5ccc6ncccc6c5)CC4)C3)cc21)c1cc(C(F)(F)F)ccc1Cl` (stereo not drawn) [IND_CC-684, 2-Chloro-N-[6-[8-(quinolin-6-yl-methyl)-2,8-diazaspiro[4.5]decane-2-carbonyl]-2,3-dihydro-1H-inden-1-yl]-5-(trifluoromethyl)-benzamide], the inhibition at 10 µM is 67%.

`O=C(c1ccc2c(c1)C(NS(=O)(=O)Cc1cccc(Cl)c1)CC2)N1CCC2(CC1)CCN(c1ccncc1)CC2` (stereo not drawn) [IND_CC-352, 1-(3-Chlorophenyl)-N-[6-(9-pyridin-4-yl-3,9-diazaspiro[5.5]undecane-3-carbonyl)-2,3-dihydro-1H-inden-1-yl]-methanesulfonic acid amide]: the inhibition at 10 µM was determined as 98%.

With `O=C(NC1CCc2ccc(C(=O)N3CCC4(CC3)CCN(c3ccncc3)CC4)cc21)c1c(F)cccc1F` (stereo not drawn) [IND_CC-383, 2,6-Difluoro-N-[6-(9-pyridin-4-yl-3,9-diazaspiro[5.5]undecane-3-carbonyl)-2,3-dihydro-1H-inden-1-yl]-benzamide], the inhibition at 10 µM worked out at 102%.

`Cc1cccc(Cl)c1C(=O)NC1CCc2ccc(C(=O)N3CCC4(CCN(CC(C)C)CC4)C3)cc21` (stereo not drawn) [IND_CC-767, 2-Chloro-6-methyl-N-[6-[8-(2-methyl-propyl)-2,8-diazaspiro[4.5]decane-2-carbonyl]-2,3-dihydro-1H-inden-1-yl]-benzamide]: the inhibition at 10 µM was 73%.

With `O=C(NC1CCCCC1)N1CCC2(CC1)CCN(C(=O)c1ccc3c(c1)C(N(C(=O)c1ccccc1Cl)C1CC1)CC3)C2` (stereo not drawn) [IND_CC-717, 2-[3-[(2-Chloro-benzoyl)-cyclopropyl-amino]-2,3-dihydro-1H-indene-5-carbonyl]-N-cyclohexyl-2,8-diazaspiro[4.5]decane-8-carboxylic acid amide], the inhibition at 10 µM is 72%.

`O=C(NC1CCc2ccc(C(=O)N3CCC4(CCN(c5ccncc5)CC4)C3)cc21)C1CC1` (stereo not drawn) [IND_CC-370, N-[6-(8-Pyridin-4-yl-2,8-diazaspiro[4.5]decane-2-carbonyl)-2,3-dihydro-1H-inden-1-yl]-cyclopropanecarboxylic acid amide]: the inhibition at 10 µM amounted to 100%.

On to `COc1cccc(F)c1CN1CCC2(CC1)CCN(C(=O)c1ccc3c(c1)C(N(C(=O)c1ccccc1Cl)C1CC1)CC3)C2` (stereo not drawn) [IND_CC-525, 2-Chloro-N-cyclopropyl-N-[6-[8-[(2-fluoro-6-methoxy-phenyl)-methyl]-2,8-diazaspiro[4.5]decane-2-carbonyl]-2,3-dihydro-1H-inden-1-yl]-benzamide], for which the inhibition at 10 µM turned out to be 62%.

Regarding `O=C(NC1CCc2ccc(C(=O)N3CCC4(CCN(Cc5ccc(F)cc5Cl)CC4)CC3)cc21)c1cccc(Cl)c1Cl` (stereo not drawn) [IND_CC-726, 2,3-Dichloro-N-[6-[9-[(2-chloro-4-fluoro-phenyl)-methyl]-3,9-diazaspiro[5.5]undecane-3-carbonyl]-2,3-dihydro-1H-inden-1-yl]-benzamide], the inhibition at 10 µM is 67%.

Consider `N#Cc1ccc(CN2CCC3(CC2)CCN(C(=O)c2ccc4c(c2)C(NC(=O)c2cc(Cl)ccc2F)CC4)CC3)cc1` (stereo not drawn) [IND_CC-653, 5-Chloro-N-[6-[9-[(4-cyano-phenyl)-methyl]-3,9-diazaspiro[5.5]undecane-3-carbonyl]-2,3-dihydro-1H-inden-1-yl]-2-fluoro-benzamide], for which the inhibition at 10 µM is 64%.

On to `O=C(NC1CCc2ccc(C(=O)N3CCC4(CCN(Cc5c(F)cccc5Cl)CC4)C3)cc21)c1ccccc1Cl` (stereo not drawn) [IND_CC-557, 2-Chloro-N-[6-[8-[(2-chloro-6-fluoro-phenyl)-methyl]-2,8-diazaspiro[4.5]decane-2-carbonyl]-2,3-dihydro-1H-inden-1-yl]-benzamide], for which the inhibition at 10 µM was 103%.

Consider `O=C(NC1CCc2ccc(C(=O)N3CCC4(CC3)CCN(c3ccncc3)C4)cc21)c1c(F)cccc1C(F)(F)F` (stereo not drawn) [IND_CC-377, 2-Fluoro-N-[6-(2-pyridin-4-yl-2,8-diazaspiro[4.5]decane-8-carbonyl)-2,3-dihydro-1H-inden-1-yl]-6-(trifluoromethyl)-benzamide], for which the inhibition at 10 µM was 104%.

Regarding `O=C(NC1CCc2ccc(C(=O)N3CCC4(CCN(Cc5ccc[nH]5)CC4)CC3)cc21)c1c(F)cccc1Cl` (stereo not drawn) [IND_CC-783, 2-Chloro-6-fluoro-N-[6-[9-(1H-pyrrol-2-yl-methyl)-3,9-diazaspiro[5.5]undecane-3-carbonyl]-2,3-dihydro-1H-inden-1-yl]-benzamide], the inhibition at 10 µM was 102%.

As for `COc1cccc(F)c1CN1CCC2(CC1)CCN(C(=O)c1ccc3c(c1)C(NC(=O)c1ccccc1Cl)CC3)CC2` (stereo not drawn) [IND_CC-517, 2-Chloro-N-[6-[9-[(2-fluoro-6-methoxy-phenyl)-methyl]-3,9-diazaspiro[5.5]undecane-3-carbonyl]-2,3-dihydro-1H-inden-1-yl]-benzamide], the inhibition at 10 µM came to 90%.

Turning to `Cc1cc(F)cc(C)c1S(=O)(=O)N(C)C1CCc2ccc(C(=O)N3CCC4(CC3)CCN(c3ccncc3)CC4)cc21` (stereo not drawn) [IND_CC-354, 4-Fluoro-N,2,6-trimethyl-N-[6-(9-pyridin-4-yl-3,9-diazaspiro[5.5]undecane-3-carbonyl)-2,3-dihydro-1H-inden-1-yl]-benzenesulfonic acid amide], the inhibition at 10 µM is 84%.
